# System: β-TrCP1:β-catenin interaction
# Assay type: binding, human
# Settings: saturating concentrations of glue, TR-FRET
structure (smiles),measurement,value
"COc1cc2c(cc1OC)CN(C(=O)c1c(Sc3c(Cl)cccc3Cl)cc(C(F)(F)F)[nH]c1=O)C2 [NRX-252262, 4-((2,6-dichlorophenyl)thio)-3-(5,6-dimethoxyisoindoline-2-carbonyl)-6-(trifluoromethyl)pyridin-2(1H)-one]",Effect on the β-TrCP1:β-catenin interaction,dramatically enhances the interaction between β-TrCP1 and β-catenin
